Test results reported in ChEMBL document CHEMBL1201862, “PubChem BioAssay data set” (2004).
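Grown in 96-well plates, cells were treated for 48 hours with each compound at five concentrations. Insufficient inhibition: endpoint recorded as highest concentration tested. Here, GI50 denotes the concentration required for 50% inhibition of growth.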 Active and inactive are the calls of the source. No stated cut-off is given here; in the data, active = GI50 up to about 1.1 µM and inactive = higher.

Columns and labels:
Assay in all cases: NCI anticancer screen, dose series, 48 h
[1] = system: 786-0
[2] = system: A498
[3] = system: A549
[4] = system: ACHN
[5] = system: BT-549
[6] = system: CAKI-1
[7] = system: CCRF-CEM
[8] = system: COLO 205
[9] = system: DU-145
[10] = system: EKVX
[11] = system: HCT-116
[12] = system: HCT-15
[13] = system: HL-60
[14] = system: HOP-62
[15] = system: HOP-92
[16] = system: HT-29
[17] = system: Hs-578T
[18] = system: IGROV-1
[19] = system: K562
[20] = system: KM12
[21] = system: LOX IMVI
[22] = system: M14
[23] = system: MDA-MB-231
[24] = system: MDA-MB-435
[25] = system: MDA-N
[26] = system: MOLT-4
[27] = system: Malme-3M
[28] = system: NCI-H226
[29] = system: NCI-H23
[30] = system: NCI-H460
[31] = system: NCI-H522
[32] = system: NCI/ADR-RES
[33] = system: OVCAR-3
[34] = system: OVCAR-4
[35] = system: OVCAR-5
[36] = system: OVCAR-8
[37] = system: PC-3
[38] = system: RPMI-8226
[39] = system: RXF 393
[40] = system: SF-268
[41] = system: SF-295
[42] = system: SF-539
[43] = system: SK-MEL-28
[44] = system: SK-MEL-2
[45] = system: SK-MEL-5
[46] = system: SK-OV-3
[47] = system: SN12C
[48] = system: SNB-19
[49] = system: SR
[50] = system: SW-620
[51] = system: T47D
[52] = system: TK-10
[53] = system: U-251
[54] = system: UACC-257
[55] = system: UACC-62
[56] = system: UO-31
[57] = system: SNB-75
[58] = system: HCC 2998

C[C@@H]1[C@@H](c2ccccc2)O[B-](c2ccccc2)(c2ccccc2)[N+]1(C)C
GI50 [1]: 66.7 µM (inactive)
GI50 [2]: 67.8 µM (inactive)
GI50 [3]: > 100 µM (inactive)
GI50 [4]: 50.1 µM (inactive)
GI50 [5]: 43.6 µM (inactive)
GI50 [6]: 48.3 µM (inactive)
GI50 [7]: 61.4 µM (inactive)
GI50 [8]: 33 µM (inactive)
GI50 [9]: > 100 µM (inactive)
GI50 [10]: > 100 µM (inactive)
GI50 [11]: 59.3 µM (inactive)
GI50 [12]: 58.7 µM
GI50 [13]: 66.1 µM (inactive)
GI50 [14]: > 100 µM (inactive)
GI50 [15]: 25.4 µM (inactive)
GI50 [16]: > 100 µM (inactive)
GI50 [17]: 54.2 µM (inactive)
GI50 [18]: 96.8 µM (inactive)
GI50 [19]: 33 µM (inactive)
GI50 [20]: > 100 µM (inactive)
GI50 [21]: > 100 µM (inactive)
GI50 [22]: 34.5 µM (inactive)
GI50 [23]: > 100 µM (inactive)
GI50 [24]: 98.6 µM (inactive)
GI50 [25]: 54.1 µM (inactive)
GI50 [26]: > 100 µM (inactive)
GI50 [27]: 78 µM (inactive)
GI50 [28]: 41 µM (inactive)
GI50 [29]: 90.6 µM (inactive)
GI50 [30]: > 100 µM (inactive)
GI50 [31]: 58.2 µM (inactive)
GI50 [32]: > 100 µM (inactive)
GI50 [33]: 70.5 µM (inactive)
GI50 [34]: 56.4 µM (inactive)
GI50 [35]: > 100 µM (inactive)
GI50 [36]: 99.5 µM (inactive)
GI50 [37]: 22.8 µM (inactive)
GI50 [38]: 58.9 µM (inactive)
GI50 [39]: 34.7 µM (inactive)
GI50 [40]: > 100 µM (inactive)
GI50 [41]: > 100 µM (inactive)
GI50 [42]: 55.7 µM (inactive)
GI50 [43]: 58.3 µM (inactive)
GI50 [44]: > 100 µM (inactive)
GI50 [45]: 27.5 µM (inactive)
GI50 [46]: > 100 µM (inactive)
GI50 [47]: > 100 µM (inactive)
GI50 [48]: > 100 µM (inactive)
GI50 [49]: 53 µM (inactive)
GI50 [50]: 62.7 µM (inactive)
GI50 [51]: 54.5 µM (inactive)
GI50 [52]: 54.7 µM (inactive)
GI50 [53]: > 100 µM (inactive)
GI50 [54]: > 100 µM (inactive)
GI50 [55]: > 100 µM (inactive)
GI50 [56]: 22.7 µM (inactive)

CCCCCCCCCCCCCCCCCCNc1ccn(C2OC(CO)C(OP(=O)(O)OCC3CCC(n4ccc(N)nc4=O)O3)C2O)c(=O)n1 (stereo not drawn)
GI50 [1]: > 100 µM (inactive)
GI50 [3]: > 100 µM (inactive)
GI50 [4]: > 100 µM (inactive)
GI50 [5]: 30.8 µM (inactive)
GI50 [6]: > 100 µM (inactive)
GI50 [7]: 16.7 µM (inactive)
GI50 [8]: 45.9 µM (inactive)
GI50 [9]: > 100 µM (inactive)
GI50 [10]: > 100 µM (inactive)
GI50 [11]: 66.5 µM (inactive)
GI50 [12]: 40.3 µM
GI50 [13]: 17.1 µM (inactive)
GI50 [14]: > 100 µM (inactive)
GI50 [15]: > 100 µM (inactive)
GI50 [16]: 42.5 µM (inactive)
GI50 [17]: > 100 µM (inactive)
GI50 [18]: 27.2 µM (inactive)
GI50 [20]: 36.3 µM (inactive)
GI50 [21]: 32.3 µM (inactive)
GI50 [22]: 42.3 µM (inactive)
GI50 [23]: > 100 µM (inactive)
GI50 [24]: > 100 µM (inactive)
GI50 [25]: > 100 µM (inactive)
GI50 [26]: 3.9 µM (inactive)
GI50 [27]: 21.1 µM (inactive)
GI50 [28]: > 100 µM (inactive)
GI50 [29]: > 100 µM (inactive)
GI50 [30]: 55.8 µM (inactive)
GI50 [31]: 28.6 µM (inactive)
GI50 [32]: > 100 µM (inactive)
GI50 [33]: > 100 µM (inactive)
GI50 [34]: 93.8 µM (inactive)
GI50 [35]: 57.7 µM (inactive)
GI50 [36]: > 100 µM (inactive)
GI50 [37]: 17.4 µM (inactive)
GI50 [39]: 15.6 µM (inactive)
GI50 [40]: 27.9 µM (inactive)
GI50 [41]: > 100 µM (inactive)
GI50 [42]: 32.7 µM (inactive)
GI50 [43]: 61.5 µM (inactive)
GI50 [44]: > 100 µM (inactive)
GI50 [45]: > 100 µM (inactive)
GI50 [46]: > 100 µM (inactive)
GI50 [47]: > 100 µM (inactive)
GI50 [48]: > 100 µM (inactive)
GI50 [57]: 62.2 µM (inactive)
GI50 [50]: 46.3 µM (inactive)
GI50 [51]: 83.4 µM (inactive)
GI50 [52]: 42.1 µM (inactive)
GI50 [53]: > 100 µM (inactive)
GI50 [54]: > 100 µM (inactive)
GI50 [55]: > 100 µM (inactive)
GI50 [56]: 22.2 µM (inactive)

Cc1ccc(S(=O)(=O)c2[nH]cc(/C(=C\C3CCCCC3)[N+](=O)[O-])c2C2CCCCC2)cc1
GI50 [1]: 0.199 µM (active)
GI50 [3]: 1.71 µM (inactive)
GI50 [4]: 0.366 µM (active)
GI50 [5]: 0.28 µM (active)
GI50 [6]: 0.22 µM (active)
GI50 [7]: 0.272 µM (active)
GI50 [8]: 0.25 µM (active)
GI50 [9]: 0.596 µM (active)
GI50 [10]: 0.354 µM (active)
GI50 [58]: 0.682 µM (active)
GI50 [11]: 0.216 µM (active)
GI50 [12]: 0.199 µM
GI50 [14]: 1.41 µM (inactive)
GI50 [15]: 0.292 µM (active)
GI50 [16]: 0.497 µM (active)
GI50 [17]: 0.324 µM (active)
GI50 [18]: 0.314 µM (active)
GI50 [19]: 0.251 µM (active)
GI50 [20]: 1.79 µM (inactive)
GI50 [21]: 0.202 µM (active)
GI50 [22]: 0.236 µM (active)
GI50 [23]: 0.217 µM (active)
GI50 [24]: 0.398 µM (active)
GI50 [25]: 0.301 µM (active)
GI50 [26]: 0.324 µM (active)
GI50 [27]: 0.564 µM (active)
GI50 [28]: 0.832 µM (active)
GI50 [29]: 0.542 µM (active)
GI50 [30]: 1.22 µM (inactive)
GI50 [31]: 0.208 µM (active)
GI50 [32]: 0.426 µM (active)
GI50 [33]: 0.27 µM (active)
GI50 [34]: 0.388 µM (active)
GI50 [35]: 0.822 µM (active)
GI50 [36]: 0.368 µM (active)
GI50 [37]: 0.472 µM (active)
GI50 [38]: 0.251 µM (active)
GI50 [39]: 0.196 µM (active)
GI50 [40]: 0.414 µM (active)
GI50 [42]: 0.462 µM (active)
GI50 [43]: 0.802 µM (active)
GI50 [44]: 0.377 µM (active)
GI50 [45]: 0.318 µM (active)
GI50 [47]: 0.211 µM (active)
GI50 [48]: 1.75 µM (inactive)
GI50 [57]: 1.82 µM (inactive)
GI50 [49]: 0.281 µM (active)
GI50 [50]: 0.376 µM (active)
GI50 [51]: 0.303 µM (active)
GI50 [52]: 0.544 µM (active)
GI50 [53]: 0.653 µM (active)
GI50 [54]: 0.393 µM (active)
GI50 [55]: 0.234 µM (active)
GI50 [56]: 0.493 µM (active)
